Measured values published in patent US6495593B1, “Compositions for preventing or treating adverse physiological effects associated with cardiac disease” (Dry Creek Nutrition, Inc., priority 1999, dated 2002).

Key:
[1] = In vitro hydroxyl radical scavenging assay (γ-irradiated coumarin-3-carboxylic acid); conditions: 1 mM; 10^-5 M CCA, γ-irradiation
Method: Aqueous solution of coumarin-3-carboxylic acid (CCA) was diluted in PBS buffer, pH 7.4 to give a final concentration of 10^−5 M. Polymethylmethacrylate cuvettes containing 2.5 mL CCA solution were irradiated with ^137Cs γ-ray (dose rate 1.14 Gy/min) (MDS Nordian., Ontario, Canada) at room temperature. […] Fluorescence was measured at room temperature with a Perkin Elmer LS 50 fluorimeter (excitation 400 nm, emission 450 nm) (Collins et al., “Coumarin Chemical Dosimeter for Radiation Therapy,” Med. Phys., 21: 1741-1747 (1994)). […] The scavenging activity of the proanthocyanidin extract was compared against 1 mM DMSO.

[2] = In vitro peroxyl radical scavenging assay (AAPH / 5-/6-carboxyfluorescein); conditions: 25 μg/mL; AAPH 2 mM
Method: Peroxyl radical scavenging activity was examined by adding proanthocyanidin to a peroxyl radical generating system (Makrigiorgos et al., “Novel Fluorescein-Based Flow Cytometric Method for Detection of Lipid Peroxidation,” Free Rad. Biol. Med., 22:93-100 (1997)). Peroxyl radicals were generated by dissolving 2,2′-azobis (2-amidinopropane) dihydrochloride (AAPH) in phosphate buffered saline (PBS) at 37° C. Scavenging activity of proanthocyanidin was compared with trolox (100 μM), a known peroxyl radical scavenger.

Row | Compound | induction of 7-OH-CCA formation (hydroxyl radical scavenging) [1] | peroxyl radical scavenging activity relative to proanthocyanidin 10 μg/mL [2]
1 | C[S+](C)[O-] [DMSO, dimethyl sulfoxide] | reduced the induction of 7-OH-CCA formation | 
2 | Cc1c(C)c2c(c(C)c1O)CCC(C)(C(=O)O)O2 (centres unmarked) [trolox] |  | comparable
